Results: patent publication US20190083498A1, “THERAPIES FOR HEMATOLOGIC MALIGNANCIES” (GILEAD CALISTOGA LLC, priority 2008, published 2019)

Assays:
LB cells [1] = experiment: MM cell growth with IGF-1 or IL-6, MTT; assay type: cell-based, human; conditions: 0.625 μM-[…], IL-6 or IGF-1, 48 h
Method: LB cells (Myelomonocytic myeloma cell line) were cultured for 48 h with control media; with the compound of formula I, in the presence or absence of either IL-6 or IGF-1. […] Cells were pulsed with 10 μL of 5 mg/mL MTT to each well for the last 4 hours of 48-hour cultures, followed by 100 μL isopropanol containing 0.04 N HCl. Absorbance was measured at 570/630 nm using a spectrophotometer (Molecular Devices).

LB cells [2] = experiment: LB cell proliferation with or without BMSCs, [3H]-thymidine uptake; assay type: cell-based, human; conditions: 0.625 μM-10 μM, 48 hours
Method: LB cells were cultured with control media, and with the compound of formula I for 48 hours, in the presence or absence of BMSCs. Cell proliferation was assessed using [^3H]-thymidine uptake assay. All data represent mean (±SD) of triplicate experiment.

[3] = tested on: HS-578T, T47D, and MCF7 cells; experiment: Apoptosis in breast cancer cell lines, Annexin V-FITC/7AAD; assay type: cell-based; conditions: 24 h
Method: HS-578T, T47D, and MCF7 cells were treated with the compound of formula I or corresponding DMSO concentrations for 24 h. The percentage of apoptotic cells was determined by Annexin V-FITC/7AAD staining Bottom left, viable cells (Annexin V-FITC/[…] negative); bottom right, early apoptotic cells (Annexin V-FITC positive only); top right, mid-late apoptotic cells (Annexin V-FITC/7AAD double-positive); and top left, late apoptotic/necrotic (7AAD positive only). Percentages of cells in each quadrant are indicated except for the bottom left quadrant (viable cells).

[4] = human, in vivo
Method: This example provides data relating to the concentration of the compound of formula I in the blood of a healthy human subject on day 7. The concentration was monitored over a period of 12 hours, after oral administration of 50, 100, or 200 mg BID of the compound of formula I on day 7 of the study. FIG. 11 follows the plasma concentration of the drug over a period of 12 hours from administration.
In addition, single dose studies wherein 17-400 mg of the compound of formula I was administered in healthy volunteers was carried out.
Table 1, below, provides an overview of the subjects in the study, wherein either a singe dose (SD) or multiple dose (MD) of the compound of formula I is administered to a subject at varying amounts. The “n” values refer to the number of subjects in each group.

LB and INA-6 MM cells = experiment: Growth inhibition of p110δ-positive MM cell lines, MTT; assay type: cell-based, human; conditions: 48 h
BMSCs = experiment: BMSC viability, MTT; assay type: cell-based, human; conditions: 0-20 μM, 48 h
Method: Cell viability was assessed by MTT assay, FIG. 34G. Values represent mean ±SD of triplicate cultures.

HuVECs = experiment: In vitro angiogenesis assay, endothelial cell tube formation; assay type: cell-based, human; conditions: 0, 1.0, or 10 μM; 8 h
Method: HUVEC and endothelial growth media were obtained from Lonza (Walkersville, Md., USA). […] After 8 h, tube formation was evaluated using Leika DM IL microscopy (Leica Microsystems, Wetzlar, Germany) and analyzed with IM50 software (Leica Microsystems Imaging Solutions, Cambridge, UK). HUVEC cell migration and rearrangement was visualized, and the number of branching points counted.
The effect of P110 δ inhibition on angiogenesis was investigated.

FL cell lines = experiment: PI3K signaling and apoptosis in follicular lymphoma cell lines; assay type: cell-based
primary MCL cells = experiment: Constitutive PI3K signaling in primary MCL cells; assay type: cell-based, human; conditions: two patients; dose dependent; 0.1 μM or 1 μM
[5] = tested on: CLL cells with or without StromaNKTert; experiment: CLL cell viability/apoptosis in stromal co-culture, Annexin V/PI FACS; assay type: cell-based, human; conditions: 24 hours
Method: CLL cell and stromal cell co-cultures: CLL cells were cultured under standardized conditions on stromal cell lines or primary NLC. Briefly, stromal cells were seeded one day prior to each experiment onto 24-well plates (Corning Life Sciences) at a concentration of 3×10^5 cells/mL/well and incubated at 37° C. in 5% CO2. Stromal cell confluence was confirmed by phase contrast microscopy, and CLL cells were then added onto the stromal cell layer at a concentration of 3×10^6 cells/mL. Cultures were then treated with compounds for the specified time periods. CLL cells were removed for analysis by gentle pipetting with media, and were then washed in PBS prior to analysis. A 24-hour co-culture time point was used unless otherwise indicated.
Cell viability testing and reagents: CLL cell viability was determined by analysis of Annexin V-FITC (BD Biosciences, San Diego, Calif.) and Propidium Iodine (PI) (Sigma) by FACS.
To determine whether PI3K inhibition increased the sensitivity of stroma-exposed CLL cells by increasing priming, PB-derived CLL cells cultured with or without StromaNKTert cells for 24 hours and were examined using Annexin-PI and BH3 profiling. […] Stromal co-culture of four CLL patient samples led to protection from apoptosis in untreated cells.

CLL cells = experiment: BH3 profiling, mitochondrial depolarization (JC-1); assay type: cell-based, human
Method: BH3 profiling: CLL patient peripheral blood, bone marrow, and lymph node samples were analyzed by either the plate-based fluorimetry or FACS method. Briefly, PBMCs from CLL patients were made into single cell suspensions and gently permeabilized using digitonin (0.002%). For the fluorimtery-based method, 100 μM JC-1 (Invitrogen) was added at this time and cells were then loaded onto a 384-well plate, with individual wells containing individual BH3-only peptides. The JC1-BH3 assays were then conducted in triplicate on a Tecan Safire 2 with Ex 545 +/−[…] and Em 590 +/−20 nm with a three-hour time course. For the FACS-based method, single cell suspensions from CLL patient PBMCs were stained using human Fc Block (BD Pharmingen) followed by anti-CD19-V450 (BD Pharmingen) and anti-CXCR4-APC (BD Pharmingen). […] JC-1 was measured from the 488-nm laser using a 530/30-nm filter (FITC) and a 585/42-nm filter (PE), and the degree of mitochondrial depolarization was calculated using the surrogate of the change in the median of PE signal. The mitochondrial depolarization reported in response to each BH3 peptide is normalized relative to the median percentage change in PE fluorescence of the JC-1 dye with a negative control, dimethyl sulfoxide (DMSO) (0%) and a positive control, the mitochondrial uncoupling agent carbonyl cyanide 4-(trifluoromethoxy)- phenylhydrazone (FCCP) (100%).

With `CC[C@H](Nc1ncnc2[nH]cnc12)c1nc2cccc(F)c2c(=O)n1-c1ccccc1` [Compound I, 5-fluoro-3-phenyl-2-[1-(9H-purin-6-ylamino)-propyl]-3H-quinazolin-4-one] the “MM cell growth in the presence of cell growth stimulatory cytokines” value (LB cells [1]) was “inhibits MM cell growth”, the “LB cell growth in the presence of BMSC” value (LB cells [2]) was “reduced” and the “apoptosis in breast cancer cell lines” value [3] was “induces apoptosis”. The “tolerability in normal healthy volunteers” value [4] was “well tolerated”, the “time the concentration exceeds the PI3Kδ EC50 concentration in basophil” value ([4]; 7 day) was “at least 12 hours” and the “cytotoxicity against p110δ-positive MM cells” value (LB and INA-6 MM cells) was “induced cytotoxicity”. For the same molecule, the “growth inhibition in BMSCs” value (BMSCs) was “no significant growth inhibition”, the capillary-like tube formation (HuVECs) was “inhibited capillary-like tube formation in a dose-dependent fashion” and the “pAkt, Akt, pS6 and S6 in FL cell lines” value (FL cell lines; certain cell lines) was “reduction in the production of pAkt, Akt, pS6 and S6”. For the same molecule, the “cleavage of PARP and Caspase-3 in FL cell lines” value (FL cell lines; dose dependent, 24 hours, 0.1 μM and 0.5 μM) was “Cleavage of PARP and Caspase-3 is observed”, the “constitutive PI3K signaling in primary MCL cells” value (primary MCL cells) was “block constitutive PI3K signaling” and the “CLL cell viability in stromal co-culture, single agent” value ([5]; 10 μM alone, two patients) was “profound stroma-mediated resistance”. The “apoptosis versus control in the absence of stroma” value ([5]; four CLL patient samples) was “induce more apoptosis than the control”, the “apoptosis versus control in the presence of stroma” value ([5]; four CLL patient samples) was “induce significantly more apoptosis than the control” and the “mitochondrial priming of stroma-exposed CLL cells” value (CLL cells; 24 hours, p=0.075) was “increased mitochondrial priming”. For the same molecule, the “mitochondrial depolarization induced by BAD BH3 peptide and ABT-737 in treated CLL cells” value (CLL cells; p=0.046 and p=0.047) was “significantly more mitochondrial depolarization”.
